Experimental data reported in PMC10005185, “Structure-guided engineering of a receptor-agonist pair for inducible activation of the ABA adaptive response to drought” (Science Advances, 2023).

Experiments:
[1] = test system: Arabidopsis thaliana seedlings (WT Col-0, overexpressing lines, receptor mutants); assay: Seedling establishment assay; type: in vivo
Method: Seedling establishment was scored as the percentage of seeds that developed green expanded cotyledons and the first pair of true leaves at 5 or 7 days. Seedling establishment assays in the presence of ABA receptor agonists were performed in 24-well plates, where approximately 25 to 35 seeds per well were sown. Each well contained a different treatment. The experiment was repeated at least twice.

CsPYL1^5m:ΔNHAB1 = CsPYL1^5m:ΔNHAB1 (Citrus sinensis, UniProt A0A067E666, F137I/T135L/T153I/V112L/V168A); assay: biochemical
Method: To obtain the Kd values, the data were analyzed using nonlinear least-squares regression using a model considering a single set of binding sites implemented in Origin 7.0 (OriginLab).

HAB1 with PYR1 = molecular target: T1, HAB1 with PYR1 (Arabidopsis thaliana, UniProt O49686); assay: PP2C inhibition assay, HAB1 with PYR1; type: biochemical; details: 1 μM iSB09, PYR1
T1 construct: His; made in house
Method: (§1) His-tagged receptors and phosphatases were purified using nickel–nitrilotriacetic acid (Ni-NTA) affinity chromatography. Protein integrity was analyzed by SDS–polyacrylamide gel electrophoresis, followed by InstantBlue staining. Phosphatase activity was measured using p-Nitrophenyl Phosphate (pNPP) (25 mM) as substrate, 10 mM MnCl2,1 μM PP2C, and 2 μM of the indicated receptors. Proteins were incubated with the ligands for 10 min at room temperature. pNPP was then added to start the reactions, and the absorbance at 405 nm was monitored for 20 min in a ViktorX5 plate reader. Assays were repeated twice. For dose-response experiments, IC50 values were obtained with GraphPad Prism 9 using a nonlinear regression curve fit. Each ligand concentration was tested in triplicate. Phosphatase activity of ABI1 was measured using RRA(phosphoT)VA peptide as a substrate, as described ([27]).

[2] = test system: Arabidopsis thaliana plants; assay: IR thermography of leaf temperature, arabidopsis; type: in vivo; details: transgenic CsPYL1^5m lines and Col-0, 50 μM, 24 hours after spraying
Method: A. thaliana plants were grown in a controlled environment growth chamber at 21°/19°C under 8-hour light/16-hour dark photoperiod at 100 μE m^−2 s^−1. IR thermography images of rosette leaves were acquired with a thermal camera FLIR E95 equipped with a 42° lens, 24 hours after spraying 6-week-old plants with 10 mM MES (pH 5.7) + 0.02% Silwet L-77 plus 50 μM ligand or 0.1% DMSO as a control. Images were processed and quantified with the FLIR tools software. The average temperature of 15 different sections taken from four to six leaves per plant was used for quantification. At least six plants per genotype were analyzed, and the experiments were repeated twice. Statistical analysis was performed using GraphPad Prism 9. T test or ANOVA analysis was carried out to identify statistical significance among datasets.

AtPYL5:ΔNHAB1 = AtPYL5:ΔNHAB1 (Arabidopsis thaliana, UniProt Q9FLB1); assay: Native red electrophoresis of ligand-induced ternary complex
Method: Electrophoresis was performed at a constant current of 25 mA for 150 min at 4°C. Proteins were detected in gel by InstantBlue staining, and band quantification was performed using the ImageJ software. To obtain apparent Kd values, the proportion of ternary complex formed (fraction bound) and the ABA or iSB09 free concentration in each lane were calculated and plotted as represented in Fig. 3 (E and F). Then, the dose-response curves were fitted to the classical Hill equation using the GraphPad Prism software.

[3] = test system: Arabidopsis thaliana CsPYL1^5m plants; assay: Drought resistance experiments; type: in vivo; details: 50 μM
Method: For drought assays under long-day conditions, seeds from WT Col-0 and pAlligator2-35[…] plants were grown in MS medium for 7 days. Then, seedlings were transferred to individual 0.18-liter pots containing equal amount of moisted soil composed of peat, vermiculite, and perlite at 1:0.5:0.5 ratio (v/v). Plants were grown under long-day conditions in a controlled environment growth chamber at 22°C under 16-hour light/8-hour dark photoperiod under well-watered conditions for 3 weeks. Then, watering was withheld for 14 days. […] The first application was performed the same day the watering was withheld, and the second one was performed 7 days later. Watering was restored and survival rate was measured 6 days after […]. Gravimetric analysis of water loss in pots was performed along the experiment. […] Pots were weighted at 7-day intervals. Pictures of the plants were taken at the beginning of the experiment, 26 days after water deprivation and 12 days after […]. Survival rate and foliar leaf area were measured 12 days after […]. For drought experiments, 6 to 10 plants per genotype and treatment were analyzed in each experiment. The experiment was performed twice.

tomato plants = assay: IR thermography of leaf temperature, tomato; type: in vivo, Solanum lycopersicum; details: 10 μM
Method: For experiments using N. benthamiana or S. lycopersium, 1-month-old plants grown under long-day conditions (16-hour light/8-hour dark) were sprayed with 10 mM MES (pH 5.7) + 0.02% Silwet L77 supplemented with either 50 μM ABA, or the indicated concentration of iSB07/iSB09 or 0.1% DMSO as a mock-treated control. IR images were taken using a FLIR E95 thermocamera 1 day after the treatment (for N. benthamiana) or 2 and 5 days (for S. lycopersicum). Quantification was performed using the FLIR tools software on fully expanded leaves by analyzing 10 sections per leaf. At least six plants per genotype and treatment were analyzed in each experiment. Experiments were repeated twice. The average plant temperature ± SD of all the plants for each treatment and genotype was calculated and used to report the increase in temperature produced by each treatment. Statistical comparisons among genotypes were performed by either pairwise t tests or one-way ANOVA.
Fig. S6. QB lacks bioactivity in tomato whereas iSB09 is
(A) Quantification of the leaf temperature difference at 2 and 5 days after spraying tomato plants with 0.1 % DMSO
(mock- treated control), 10 µM iSB09 or 10 µM QB.
Asterisk indicates p<0.001 (Student’s t test). Values show individual points and average ± SD (n=4 replicates for mock and chemical treatments). (B) IR-images of representative tomato plants at 2 days after being treated with 0.1 % DMSO
Photographs were taken with white light (leaf panel) or infrared thermography (right panel) using the camera FLIR
HAB1 phosphatase activity in presence of PYL4. IC50 values for iSB09 or QB-dependent inhibition of HAB1 by AtPYL4. Values (average of duplicates) show PP2C activity after incubation with the indicated concentration of ligand and AtPYL4 at 1:2 ratio (1 µM phosphatase:2 µM receptor).
(1 picture or pasted object on this page, not shown here)

HAB1 with PYL2 = molecular target: T2, HAB1 with PYL2 (Arabidopsis thaliana, UniProt O80992); assay: PP2C inhibition assay, HAB1 with PYL2; type: biochemical; details: 1 μM iSB09, PYL2
T2 construct: His; made in house
Method: as §1

T1 sequence (O49686 whole entry): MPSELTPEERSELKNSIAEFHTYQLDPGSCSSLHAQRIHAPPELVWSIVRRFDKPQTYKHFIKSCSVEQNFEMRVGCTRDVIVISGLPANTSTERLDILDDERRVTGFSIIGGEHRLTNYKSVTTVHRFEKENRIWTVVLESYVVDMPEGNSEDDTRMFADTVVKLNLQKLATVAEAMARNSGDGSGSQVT
T1 sequence (Q9CAJ0 179-511 partner limits assumed): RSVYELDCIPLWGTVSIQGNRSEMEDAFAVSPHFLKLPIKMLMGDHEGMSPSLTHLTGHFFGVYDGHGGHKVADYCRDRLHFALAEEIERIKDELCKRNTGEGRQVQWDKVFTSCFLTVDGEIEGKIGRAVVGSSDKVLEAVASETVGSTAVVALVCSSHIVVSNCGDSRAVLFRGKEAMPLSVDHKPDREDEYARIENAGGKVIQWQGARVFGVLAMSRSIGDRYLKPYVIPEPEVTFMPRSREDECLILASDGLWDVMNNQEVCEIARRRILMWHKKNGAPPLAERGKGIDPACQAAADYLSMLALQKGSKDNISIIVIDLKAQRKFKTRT
Sequence of AtPYL5:ΔNHAB1 (Q9FLB1 whole entry, stated change not applied): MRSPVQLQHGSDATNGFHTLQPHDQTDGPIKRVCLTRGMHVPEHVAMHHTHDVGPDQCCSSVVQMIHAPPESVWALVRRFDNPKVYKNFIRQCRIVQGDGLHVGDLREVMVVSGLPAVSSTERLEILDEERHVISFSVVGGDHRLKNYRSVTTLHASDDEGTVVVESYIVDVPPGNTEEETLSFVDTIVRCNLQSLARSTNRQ
Sequence of CsPYL1^5m:ΔNHAB1 (A0A067E666 1-209 V112L/T135L/F137I/T153I/V168A): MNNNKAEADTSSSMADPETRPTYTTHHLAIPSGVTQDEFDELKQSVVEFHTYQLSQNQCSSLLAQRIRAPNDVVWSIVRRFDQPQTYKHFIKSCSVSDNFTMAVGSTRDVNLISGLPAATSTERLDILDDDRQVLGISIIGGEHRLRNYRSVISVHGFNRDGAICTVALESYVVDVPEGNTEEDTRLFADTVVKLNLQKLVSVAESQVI
Sequence of CsPYL1^5m:ΔNHAB1 (Q9CAJ0 179-511 partner): as the sequence (Q9CAJ0 179-511 partner limits assumed) above
T2 sequence (O80992 whole entry): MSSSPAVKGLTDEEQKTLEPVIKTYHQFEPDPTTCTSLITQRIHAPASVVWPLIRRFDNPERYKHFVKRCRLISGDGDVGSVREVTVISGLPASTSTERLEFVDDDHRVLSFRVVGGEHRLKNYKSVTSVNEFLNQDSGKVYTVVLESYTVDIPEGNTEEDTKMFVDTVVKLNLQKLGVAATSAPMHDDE
T2 sequence (Q9CAJ0 179-511 partner limits assumed): as the sequence (Q9CAJ0 179-511 partner limits assumed) above

## CCn1c(=O)cc(C)c2cc(CNS(=O)(=O)c3ccccc3)ccc21 [iSB09]
[1]; WT Col-0
  dosage able to inhibit seedling establishment: 5 µM
[1]; mutants lacking functional PYR1 and PYL1, 10 μM iSB09
  agonist-induced inhibition of seedling establishment: insensitive
[1]; plants that express CsPYL1^5m
  dosage able to inhibit seedling establishment: 0.5 µM
CsPYL1^5m:ΔNHAB1
  Kd: 560 nM
HAB1 with PYR1
  inhibition at 1 µM: 60 to 70%
[2]
  leaf temperature by thermal imaging: increased leaf temperature
AtPYL5:ΔNHAB1
  Kd: 1200 nM
[3]; CsPYL1^5m plants, long-day conditions
  drought resistance compared to mock-treated plants: markedly enhanced drought resistance
[3]; CsPYL1^5m plants, long-day, 10 days after stopping irrigation
  soil water consumption: 40%
[3]; short-day conditions
  drought resistance compared to mock-treated plants: enhanced resistance to drought
Tomato plants; 2 and 5 days after spraying
  bioactivity in tomato (leaf temperature): active
Tomato plants; tomato
  persistence of the effect on leaf temperature after spraying: up to 5 days
HAB1 with PYL2
  inhibition at 1 µM: 60 to 70%
